Measured values: ChEMBL document CHEMBL6121063, “Identification of a Potent and Selective CDK9 Degrader as a Targeted Therapeutic Option for the Treatment of Small-Cell Lung Cancer” (J Med Chem, 2025)
The source made the active and inactive calls. The rule behind the calls is not given here.

Columns and labels:
[1] = biological target: T1, Protein cereblon/Cyclin-dependent kinase 9 (Homo sapiens, UniProt P50750+Q96SW2); assay: PROTAC activity at CRBN/CDK9 in human NCI-H69 cells assessed as induction of CDK9 degradation at 10 nM by Western blot analysis relative to control; format: cell-based
[2] = biological target: T1, Protein cereblon/Cyclin-dependent kinase 9; assay: PROTAC activity at CRBN/CDK9 in human NCI-H446 cells assessed as induction of CDK9 degradation at 10 nM by Western blot analysis relative to control; format: cell-based
[3] = biological target: T1, Protein cereblon/Cyclin-dependent kinase 9; assay: In vivo PROTAC activity at CRBN/CDK9 in female BALB/c nude mouse xenografted with human NCI-H446 cells assessed as induction of CDK9 degradation in tumor at 25 mg/kg, po measured after 6 to 12 hrs by Western blot analysis; format: functional, organism-based; settings: time 6-12 hrs
[4] = biological target: T1, Protein cereblon/Cyclin-dependent kinase 9; assay: PROTAC activity at CRBN/CDK9 in human NCI-H69 cells assessed as induction of CDK9 degradation at 10 nM by Western blot analysis; format: cell-based; settings: time 0.5-12 hrs
[5] = biological target: T1, Protein cereblon/Cyclin-dependent kinase 9; assay: PROTAC activity at CRBN/CDK9 in human NCI-H69 cells assessed as induction of CDK9 degradation preincubated with MG132 for 2 hrs followed by compound addition and measured after 3 hrs by Western blot analysis; format: cell-based
[6] = biological target: T1, Protein cereblon/Cyclin-dependent kinase 9; assay: PROTAC activity at CRBN/CDK9 in human NCI-H69 cells assessed as induction of CDK9 degradation preincubated with AT-7519 for 2 hrs followed by compound addition and measured after 3 hrs by Western blot analysis; format: cell-based
NCI-H446 [7] = assay: Antiproliferative activity against human NCI-H446 cells assessed as reduction in cell viability incubated for 72 hrs in presence of thalidomide by celltiter-Glo assay; format: functional, cell-based
[8] = biological target: T1, Protein cereblon/Cyclin-dependent kinase 9; assay: PROTAC activity at CRBN/CDK9 in human NCI-H446 cells assessed as increase in CDK9 ubiquitination preincubated with MG132 for 2 hrs followed by compound addition and measured after 3 hrs by co-immunoprecipitation analysis; format: cell-based
[9] = biological target: CDK9/cyclin T1 (Homo sapiens) (UniProt O60563+P50750); assay: Inhibition of CDK9/Cyclin T1 (unknown origin) at 10 nM relative to control; format: protein-complex assay
[10] = biological target: T2, Cyclin-dependent kinase 5/CDK5 activator 1 (Homo sapiens) (UniProt Q00535+Q15078); assay: Inhibition of CDK5/p25NCK (unknown origin) at 10 nM relative to control; format: protein-complex assay
[11] = biological target: CDK4/Cyclin D3 (Homo sapiens) (UniProt P11802+P30281); assay: Inhibition of CDK4/cyclin D3 (unknown origin) at 10 nM relative to control; format: protein-complex assay
[12] = biological target: Cyclin-dependent kinase 4/cyclin D1 (Homo sapiens) (UniProt P11802+P24385); assay: Inhibition of CDK4/cyclin D1 (unknown origin) at 10 nM relative to control; format: protein-complex assay
[13] = biological target: T2, Cyclin-dependent kinase 5/CDK5 activator 1 (Homo sapiens); assay: Inhibition of CDK5/p35NCK (unknown origin) at 10 nM relative to control; format: protein-complex assay
[14] = biological target: CDK6/cyclin D3 (Homo sapiens) (UniProt P30281+Q00534); assay: Inhibition of CDK6/cyclin D3 (unknown origin) at 10 nM relative to control; format: protein-complex assay
[15] = biological target: CDK3/Cyclin E (Homo sapiens) (UniProt P24864+Q00526); assay: Inhibition of CDK3/cyclin E1 (unknown origin) at 10 nM relative to control; format: protein-complex assay
NCI-H69 [16] = assay: Downregulation of CDK9 protein level in human NCI-H69 cells at 1 to 10 nM incubated for 8 hrs by Western blot analysis; format: functional, cell-based; settings: dose 1-10 nM
[17] = biological target: Cyclin-dependent kinase 9 (Homo sapiens) (UniProt P50750); assay: Inhibition of CDK9-related signaling in human NCI-H69 cells assessed as decrease in RNA polymerase II phosphorylation at Ser2 residue at 0.5 to 10 nM incubated for 24 hrs by Western blot analysis; format: cell-based; settings: dose 0.5-10 nM
[18] = biological target: Cyclin-dependent kinase 9 (Homo sapiens) (UniProt P50750); assay: Inhibition of CDK9-related signaling in human NCI-H69 cells assessed as decrease in RNA polymerase II phosphorylation at Ser5 residue at 0.5 to 10 nM incubated for 24 hrs by Western blot analysis; format: cell-based; settings: dose 0.5-10 nM
[19] = biological target: Cyclin-dependent kinase 9 (Homo sapiens) (UniProt P50750); assay: Inhibition of CDK9-related signaling in human NCI-H69 cells assessed as reduction in c-MYC expression level at 0.5 to 10 nM incubated for 24 hrs by Western blot analysis; format: cell-based; settings: dose 0.5-10 nM
NCI-H446 [20] = assay: Inhibition of colony formation in human NCI-H446 cells at 2 to 4 nM incubated for 8 days by crystal violet staining based analysis; format: functional, cell-based; settings: dose 2-4 nM, time 8.0 day
NCI-H69 [21] = assay: Cell cycle arrest in human NCI-H69 cells assessed as increase in G1 phase population incubated for 36 hrs by PI staining based flow cytometric analysis; format: functional; settings: dose 0.5-4 nM
NCI-H69 [22] = assay: Induction of apoptosis in human NCI-H69 cells at 1 nM by microscopic analysis; format: functional, cell-based
NCI-H69 [23] = assay: Induction of apoptosis in human NCI-H69 cells assessed as decrease in MCL-1 expression incubated for 36 hrs by Western blot analysis; format: functional, cell-based
NCI-H69 [24] = assay: Induction of apoptosis in human NCI-H69 cells assessed as increase in cleaved PARP level incubated for 36 hrs by Western blot analysis; format: functional, cell-based
[25] = biological target: T1, Protein cereblon/Cyclin-dependent kinase 9; assay: In vivo PROTAC activity at CRBN/CDK9 in female NU/NU mouse model xenografted with human NCI-H446 cells assessed as decrease in CDK9 expression in tumor at 12.5 to 25 mg/kg, po administered once daily for 15 days by immunohistochemical staining based analysis; format: functional, organism-based; settings: dose 12.5-25 mg/kg, time 15.0 day
NCI-H446 [26] = assay: Antitumor activity against human NCI-H446 cells xenografted in female NU-NU mouse model assessed as increase in cleaved caspase-3 expression in tumor at 12.5 to 25 mg/kg, po administered once daily for 15 days by immunohistochemical staining based analysis; format: functional, organism-based; settings: dose 12.5-25 mg/kg, time 15.0 day
NCI-H446 [27] = assay: Antitumor activity against human NCI-H446 cells expressing luciferase-GFP xenografted in female NU-NU mouse model assessed as decrease in systemic metastasis at 12.5 to 25 mg/kg, po administered for 19 days; format: functional, organism-based; settings: dose 12.5-25 mg/kg, time 19.0 day
[28] = system: Small cell lung cancer cell line; assay: Antitumor activity against LDI-0060-200770 patient derived Small cell lung cancer cell line xenografted in BALB/c nude mouse assessed as reduction in tumor growth at 25 mg/kg, po administered once daily for 7 days; format: functional, organism-based; settings: Homo sapiens, time 7.0 day
[29] = system: Small cell lung cancer cell line; assay: Antitumor activity against LDI-0025-362145 patient derived Small cell lung cancer cell line xenografted in BALB/c nude mouse assessed as reduction in tumor growth at 25 mg/kg, po administered once daily for 7 days; format: functional, organism-based; settings: Homo sapiens, time 7.0 day
[30] = system: Small cell lung cancer cell line; assay: Antitumor activity against LDI-2025-362195 patient derived Small cell lung cancer cell line xenografted in BALB/c nude mouse assessed as reduction in tumor growth at 25 mg/kg, po administered once daily for 7 days; format: functional, organism-based; settings: Homo sapiens, time 7.0 day
[31] = biological target: Cyclin-Y/Cyclin-dependent kinase 16 (Homo sapiens) (UniProt Q00536+Q8ND76); settings: dose 10.0 nM
[32] = biological target: CDK2/Cyclin A2 (Homo sapiens) (UniProt P24941+P20248); settings: dose 10.0 nM

Chain of Cyclin-dependent kinase 9 (Homo sapiens) (P50750 whole entry): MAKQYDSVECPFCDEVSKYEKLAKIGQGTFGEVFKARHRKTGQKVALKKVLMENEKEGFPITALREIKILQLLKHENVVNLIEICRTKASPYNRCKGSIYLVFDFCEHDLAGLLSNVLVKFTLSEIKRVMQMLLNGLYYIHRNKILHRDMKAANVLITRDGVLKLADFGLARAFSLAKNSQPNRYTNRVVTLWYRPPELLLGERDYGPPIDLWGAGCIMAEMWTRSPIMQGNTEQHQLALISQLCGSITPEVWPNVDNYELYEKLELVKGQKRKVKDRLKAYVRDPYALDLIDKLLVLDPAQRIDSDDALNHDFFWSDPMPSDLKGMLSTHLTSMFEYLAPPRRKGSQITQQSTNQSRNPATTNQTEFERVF
T1 sequence (P50750 whole entry, looked up): as the sequence (P50750 whole entry) above
T1 sequence (Q96SW2 whole entry, looked up): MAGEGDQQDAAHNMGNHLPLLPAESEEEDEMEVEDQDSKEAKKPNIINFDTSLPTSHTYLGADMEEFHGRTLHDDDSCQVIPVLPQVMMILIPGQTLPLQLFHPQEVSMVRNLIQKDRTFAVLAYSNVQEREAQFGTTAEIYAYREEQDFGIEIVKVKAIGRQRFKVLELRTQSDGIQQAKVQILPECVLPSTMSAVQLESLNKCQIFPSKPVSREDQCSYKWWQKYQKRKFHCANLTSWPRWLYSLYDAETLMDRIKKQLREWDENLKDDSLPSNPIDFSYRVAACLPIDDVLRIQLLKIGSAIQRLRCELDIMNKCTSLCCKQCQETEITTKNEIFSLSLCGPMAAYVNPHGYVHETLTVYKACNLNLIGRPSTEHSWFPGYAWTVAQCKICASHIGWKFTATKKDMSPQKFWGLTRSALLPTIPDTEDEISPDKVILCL
T2 sequence (Q00535 whole entry): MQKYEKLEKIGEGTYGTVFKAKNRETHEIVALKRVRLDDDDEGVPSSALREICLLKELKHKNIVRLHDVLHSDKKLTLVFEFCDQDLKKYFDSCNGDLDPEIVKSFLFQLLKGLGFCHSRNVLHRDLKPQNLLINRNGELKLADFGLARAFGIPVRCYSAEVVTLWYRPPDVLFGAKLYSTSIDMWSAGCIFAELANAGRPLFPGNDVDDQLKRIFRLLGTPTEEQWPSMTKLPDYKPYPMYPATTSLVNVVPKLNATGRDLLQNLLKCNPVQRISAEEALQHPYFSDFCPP
T2 sequence (Q15078 99-307 partner limits assumed): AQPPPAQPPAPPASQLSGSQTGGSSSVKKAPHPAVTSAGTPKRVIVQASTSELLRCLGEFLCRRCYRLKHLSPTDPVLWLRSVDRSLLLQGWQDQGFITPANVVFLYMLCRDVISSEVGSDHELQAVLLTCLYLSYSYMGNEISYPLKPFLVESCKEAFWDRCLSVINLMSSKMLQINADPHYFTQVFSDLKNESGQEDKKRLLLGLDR
Chain of CDK3/Cyclin E (Homo sapiens) (P24864 whole entry, looked up): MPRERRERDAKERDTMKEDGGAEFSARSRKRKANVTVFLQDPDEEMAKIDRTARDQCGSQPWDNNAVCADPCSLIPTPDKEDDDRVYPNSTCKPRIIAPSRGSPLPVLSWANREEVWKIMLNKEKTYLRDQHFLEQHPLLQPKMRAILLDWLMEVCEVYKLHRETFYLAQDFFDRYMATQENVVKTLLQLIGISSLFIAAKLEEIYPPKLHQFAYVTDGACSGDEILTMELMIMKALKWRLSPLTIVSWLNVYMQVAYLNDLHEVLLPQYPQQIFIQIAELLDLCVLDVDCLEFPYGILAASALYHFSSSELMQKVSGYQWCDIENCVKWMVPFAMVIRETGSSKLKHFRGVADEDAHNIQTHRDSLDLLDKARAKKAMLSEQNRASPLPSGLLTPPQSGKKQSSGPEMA
Chain of CDK3/Cyclin E (Homo sapiens) (Q00526 whole entry, looked up): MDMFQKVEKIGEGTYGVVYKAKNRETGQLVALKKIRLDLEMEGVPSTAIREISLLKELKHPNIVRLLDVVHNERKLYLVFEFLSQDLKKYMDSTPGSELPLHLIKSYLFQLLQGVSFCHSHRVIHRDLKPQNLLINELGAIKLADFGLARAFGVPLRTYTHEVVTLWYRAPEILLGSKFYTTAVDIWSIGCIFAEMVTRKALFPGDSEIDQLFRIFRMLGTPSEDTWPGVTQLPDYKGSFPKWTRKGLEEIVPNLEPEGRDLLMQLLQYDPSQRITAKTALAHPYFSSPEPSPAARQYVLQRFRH

`O=C1CCC(Nc2cccc(N3CCN(CC4CCN(CC(=O)N5CCC(NC(=O)c6n[nH]cc6NC(=O)c6c(Cl)cccc6Cl)CC5)CC4)CC3)c2)C(=O)N1` (configuration not stated) was tested. Which Activity [1] did it give?
The Activity was 91.2%.

What about the Activity [2] of the same compound?
Its Activity is 93.4%.

And the Activity [3]?
The Activity was “Active”.

What about the Activity [4] of the same compound?
Its Activity is “Time-dependent-effect”.

What about the Activity [5] of the same compound?
The Activity was “inactive”.

And the Activity [6]?
Its Activity is “inactive”.

What about the Activity (NCI-H446 [7]) of the same compound?
The Activity was “inactive”.

What about the Activity [8] of the same compound?
Its Activity is “Active”.

And the inhibition [9]?
Its inhibition is 95%.

What about the inhibition [10] of the same compound?
The inhibition was 52%.

And the inhibition [11]?
The inhibition was 55%.

And the inhibition [12]?
The inhibition was 37%.

And the inhibition [13]?
Its inhibition is 45%.

What about the inhibition [14] of the same compound?
Its inhibition is 15%.

And the inhibition [15]?
Its inhibition is 31%.

What about the Activity (NCI-H69 [16]) of the same compound?
The Activity was “Active”.

And the inhibition [17]?
Its inhibition is “Active”.

What about the inhibition [18] of the same compound?
The inhibition was “Active”.

What about the inhibition [19] of the same compound?
The inhibition was “Active”.

And the inhibition (NCI-H446 [20])?
Its inhibition is “Active”.

And the Activity (NCI-H69 [21])?
Its Activity is “Dose-dependent-effect”.

What about the Activity (NCI-H69 [22]) of the same compound?
The Activity was “Active”.

And the Activity (NCI-H69 [23])?
Its Activity is “Dose-dependent-effect”.

What about the Activity (NCI-H69 [24]) of the same compound?
The Activity was “Dose-dependent-effect”.

What about the Activity [25] of the same compound?
The Activity was “Active”.

And the Activity (NCI-H446 [26])?
Its Activity is “Active”.

What about the Activity (NCI-H446 [27]) of the same compound?
The Activity was “Active”.

And the Activity [28]?
The Activity was “Active”.

And the Activity [29]?
The Activity was “Active”.

What about the Activity [30] of the same compound?
The Activity was “Active”.

What about the inhibition [31] of the same compound?
The inhibition was 38%.

And the inhibition [32]?
Its inhibition is 33%.
